Measured values reported in ChEMBL document CHEMBL3885881, “DrugMatrix”.

Species on record: Rattus norvegicus
Assay: DrugMatrix - Regimen: Daily Repeat
Assay type: toxicity, organism-based, Sprague-Dawley
Set-up: regimen Daily Repeat, gender Male, age 6-8 weeks
Details: in vivo, po, route oral GAVAGE, vehicle 100 % WATER; for ABSOLUTE BASOPHIL / ABSOLUTE EOSINOPHIL / ABSOLUTE LYMPHOCYTE / ABSOLUTE MONOCYTE / ABSOLUTE SEGMENTED NEUTROPHIL / BASOPHIL / EOSINOPHIL / ERYTHROCYTE COUNT / HEMATOCRIT / HEMOGLOBIN / LEUKOCYTE COUNT / LYMPHOCYTE / MEAN CORPUSCULAR HEMOGLOBIN / MEAN CORPUSCULAR HEMOGLOBIN CONCENTRATION / MEAN CORPUSCULAR VOLUME / MONOCYTE / NEUTROPHIL / NUCLEATED RED BLOOD CELLS / PLATELET COUNT: tissue Blood; for ALANINE AMINOTRANSFERASE / ALBUMIN / ALKALINE PHOSPHATASE / ASPARTATE AMINOTRANSFERASE / BLOOD UREA NITROGEN / CARBON DIOXIDE / CHLORIDE / CHOLESTEROL / CREATINE PHOSPHOKINASE / CREATININE / GLUCOSE / LACTATE DEHYDROGENASE / LIPASE / PHOSPHORUS / POTASSIUM / SODIUM / TOTAL BILIRUBIN / TOTAL PROTEIN / URIC ACID: tissue Plasma
[1] = 2 mg/kg, 120 h, dose level Low, time 5 day
[2] = 184 mg/kg, 72 h, dose level High, time 3 day
[3] = 184 mg/kg, 120 h, dose level High, time 5 day

C[C@]12C=CC(=O)C=C1CC[C@@H]1[C@@H]2[C@@H](O)C[C@@]2(C)[C@H]1CC[C@]2(O)C(=O)CO [PREDNISOLONE]
ABSOLUTE BASOPHIL [1]: 0 CELLS/uL
ABSOLUTE EOSINOPHIL [1]: 0 CELLS/uL
ABSOLUTE LYMPHOCYTE [1]: 11293 CELLS/uL
ABSOLUTE MONOCYTE [1]: 44.33 CELLS/uL
ABSOLUTE SEGMENTED NEUTROPHIL [1]: 929.33 CELLS/uL
BASOPHIL [1]: 0%
EOSINOPHIL [1]: 0%
ERYTHROCYTE COUNT [1]: 6.06 x10E6/uL
HEMATOCRIT [1]: 36.67%
HEMOGLOBIN [1]: 14.5 G/DL
LEUKOCYTE COUNT [1]: 12.27 x10E3/uL
LYMPHOCYTE [1]: 92.33%
MEAN CORPUSCULAR HEMOGLOBIN [1]: 23.9 pg
MEAN CORPUSCULAR HEMOGLOBIN CONCENTRATION [1]: 39.53 G/DL
MEAN CORPUSCULAR VOLUME [1]: 60.53 fL
MONOCYTE [1]: 0.33%
NEUTROPHIL [1]: 7.33%
NUCLEATED RED BLOOD CELLS [1]: 0.33 /100WBC
PLATELET COUNT [1]: 1186.33 x10E3/uL
ALANINE AMINOTRANSFERASE [1]: 41.33 u/L
ALBUMIN [1]: 4.37 G/DL
ALKALINE PHOSPHATASE [1]: 333.67 u/L
ASPARTATE AMINOTRANSFERASE [1]: 88.67 u/L
BLOOD UREA NITROGEN [1]: 16.33 mg/dL
CARBON DIOXIDE [1]: 26.67 mmol/L
CHLORIDE [1]: 101 MEQ/L
CHOLESTEROL [1]: 55.33 mg/dL
CREATINE PHOSPHOKINASE [1]: 433 u/L
CREATININE [1]: 0.17 mg/dL
GLUCOSE [1]: 143.33 mg/dL
LACTATE DEHYDROGENASE [1]: 390.33 u/L
LIPASE [1]: 9 u/L
PHOSPHORUS [1]: 10.87 mg/dL
POTASSIUM [1]: 5.88 MEQ/L
SODIUM [1]: 142.2 MEQ/L
TOTAL BILIRUBIN [1]: 0.23 mg/dL
TOTAL PROTEIN [1]: 6.1 G/DL
URIC ACID [1]: 1.87 mg/dL
ABSOLUTE BASOPHIL [2]: 0 CELLS/uL
ABSOLUTE EOSINOPHIL [2]: 0 CELLS/uL
ABSOLUTE LYMPHOCYTE [2]: 4216.33 CELLS/uL
ABSOLUTE MONOCYTE [2]: 85 CELLS/uL
ABSOLUTE SEGMENTED NEUTROPHIL [2]: 2332 CELLS/uL
BASOPHIL [2]: 0%
EOSINOPHIL [2]: 0%
ERYTHROCYTE COUNT [2]: 6.23 x10E6/uL
HEMATOCRIT [2]: 38.3%
HEMOGLOBIN [2]: 14.57 G/DL
LEUKOCYTE COUNT [2]: 6.63 x10E3/uL
LYMPHOCYTE [2]: 63.67%
MEAN CORPUSCULAR HEMOGLOBIN [2]: 23.4 pg
MEAN CORPUSCULAR HEMOGLOBIN CONCENTRATION [2]: 38.03 G/DL
MEAN CORPUSCULAR VOLUME [2]: 61.47 fL
MONOCYTE [2]: 1.33%
NEUTROPHIL [2]: 35%
NUCLEATED RED BLOOD CELLS [2]: 0 /100WBC
PLATELET COUNT [2]: 1200 x10E3/uL
ALANINE AMINOTRANSFERASE [2]: 57.33 u/L
ALBUMIN [2]: 5.07 G/DL
ALKALINE PHOSPHATASE [2]: 269.33 u/L
ASPARTATE AMINOTRANSFERASE [2]: 67 u/L
BLOOD UREA NITROGEN [2]: 18.67 mg/dL
CARBON DIOXIDE [2]: 25 mmol/L
CHLORIDE [2]: 99 MEQ/L
CHOLESTEROL [2]: 84.33 mg/dL
CREATINE PHOSPHOKINASE [2]: 258 u/L
CREATININE [2]: 0.22 mg/dL
GLUCOSE [2]: 170 mg/dL
LACTATE DEHYDROGENASE [2]: 120.33 u/L
LIPASE [2]: 12.33 u/L
PHOSPHORUS [2]: 11.57 mg/dL
POTASSIUM [2]: 5.92 MEQ/L
SODIUM [2]: 142.73 MEQ/L
TOTAL BILIRUBIN [2]: 0.17 mg/dL
TOTAL PROTEIN [2]: 7.07 G/DL
URIC ACID [2]: 2.57 mg/dL
ABSOLUTE BASOPHIL [3]: 0 CELLS/uL
ABSOLUTE EOSINOPHIL [3]: 20.33 CELLS/uL
ABSOLUTE LYMPHOCYTE [3]: 3939 CELLS/uL
ABSOLUTE MONOCYTE [3]: 40.67 CELLS/uL
ABSOLUTE SEGMENTED NEUTROPHIL [3]: 2333.33 CELLS/uL
BASOPHIL [3]: 0%
EOSINOPHIL [3]: 0.33%
ERYTHROCYTE COUNT [3]: 6.44 x10E6/uL
HEMATOCRIT [3]: 38.23%
HEMOGLOBIN [3]: 15.03 G/DL
LEUKOCYTE COUNT [3]: 6.33 x10E3/uL
LYMPHOCYTE [3]: 61.33%
MEAN CORPUSCULAR HEMOGLOBIN [3]: 23.4 pg
MEAN CORPUSCULAR HEMOGLOBIN CONCENTRATION [3]: 39.37 G/DL
MEAN CORPUSCULAR VOLUME [3]: 59.4 fL
MONOCYTE [3]: 0.67%
NEUTROPHIL [3]: 37.67%
NUCLEATED RED BLOOD CELLS [3]: 0.33 /100WBC
PLATELET COUNT [3]: 1142.33 x10E3/uL
ALANINE AMINOTRANSFERASE [3]: 78.33 u/L
ALBUMIN [3]: 5.07 G/DL
ALKALINE PHOSPHATASE [3]: 230.33 u/L
ASPARTATE AMINOTRANSFERASE [3]: 90.33 u/L
BLOOD UREA NITROGEN [3]: 18.67 mg/dL
CARBON DIOXIDE [3]: 23.33 mmol/L
CHLORIDE [3]: 100 MEQ/L
CHOLESTEROL [3]: 63.67 mg/dL
CREATINE PHOSPHOKINASE [3]: 788.33 u/L
CREATININE [3]: 0.21 mg/dL
GLUCOSE [3]: 184.67 mg/dL
LACTATE DEHYDROGENASE [3]: 177.67 u/L
LIPASE [3]: 11.67 u/L
PHOSPHORUS [3]: 10.9 mg/dL
POTASSIUM [3]: 5.41 MEQ/L
SODIUM [3]: 145.27 MEQ/L
TOTAL BILIRUBIN [3]: 0.23 mg/dL
TOTAL PROTEIN [3]: 6.93 G/DL
URIC ACID [3]: 1.27 mg/dL
